From the NIST ThermoML archive (doi:10.1016/j.jct.2006.09.012)
Several values for one entry are separate records, joined by “and”; a condition that tells them apart may be missing. Equal values may be shown once.

Details: Gas, Buoyancy - hydrostatic balance with magnetic suspension - two sinkers

N#N [nitrogen]
Details	mass density
250 K, 4032 kPa	55.8107 kg/m3 [middle of 5 runs]
250 K, 7922 kPa	111.201 kg/m3
250 K, 7922.1 kPa	111.201 kg/m3
250 K, 11944 kPa	167.531 kg/m3 and 167.53 kg/m3
250 K, 15945 kPa	220.078 kg/m3 and 220.076 kg/m3
250 K, 15946 kPa	220.079 kg/m3
250 K, 19672 kPa	264.436 kg/m3 [middle of 5 runs]
250 K, 23918 kPa	309.033 kg/m3 and 309.035 kg/m3 and 309.038 kg/m3
250 K, 23919 kPa	309.043 kg/m3
250 K, 23920 kPa	309.056 kg/m3
250 K, 23921 kPa	309.062 kg/m3
250 K, 27922 kPa	345.621 kg/m3 [middle of 4 runs]
250 K, 27923 kPa	345.629 kg/m3 and 345.627 kg/m3
250 K, 31914 kPa	377.498 kg/m3 and 377.5 kg/m3
250 K, 31915 kPa	377.505 kg/m3 and 377.504 kg/m3
250 K, 31916 kPa	377.516 kg/m3 and 377.513 kg/m3
273.16 K, 3969.2 kPa	49.6242 kg/m3 [middle of 4 runs]
273.16 K, 3969.3 kPa	49.6242 kg/m3
273.16 K, 6172.5 kPa	77.4431 kg/m3 and 77.4438 kg/m3 and 77.4433 kg/m3
273.16 K, 6172.6 kPa	77.4441 kg/m3 and 77.4442 kg/m3
273.16 K, 8165.1 kPa	102.478 kg/m3 and 102.48 kg/m3
273.16 K, 8165.2 kPa	102.48 kg/m3 and 102.479 kg/m3
273.16 K, 12168 kPa	151.567 kg/m3 [middle of 5 runs]
273.16 K, 16376 kPa	200.13 kg/m3 [middle of 5 runs]
273.16 K, 20308 kPa	241.736 kg/m3 and 241.739 kg/m3
273.16 K, 20309 kPa	241.746 kg/m3 and 241.745 kg/m3 and 241.743 kg/m3
273.16 K, 24524 kPa	281.91 kg/m3
273.16 K, 24525 kPa	281.913 kg/m3 and 281.915 kg/m3
273.16 K, 24526 kPa	281.922 kg/m3 and 281.921 kg/m3
273.16 K, 28792 kPa	318.055 kg/m3
273.16 K, 28793 kPa	318.057 kg/m3 and 318.058 kg/m3
273.16 K, 28794 kPa	318.067 kg/m3 and 318.065 kg/m3
273.16 K, 33963 kPa	356.391 kg/m3
273.16 K, 33964 kPa	356.402 kg/m3 and 356.397 kg/m3
273.16 K, 33965 kPa	356.407 kg/m3
273.16 K, 33966 kPa	356.413 kg/m3
293.14 K, 99.9 kPa	1.1487 kg/m3 [middle of 4 runs]
293.14 K, 199.8 kPa	2.2978 kg/m3 and 2.2977 kg/m3 and 2.2976 kg/m3
293.14 K, 299.7 kPa	3.447 kg/m3 and 3.4472 kg/m3 and 3.4473 kg/m3
293.14 K, 499.5 kPa	5.7475 kg/m3 and 5.7477 kg/m3 and 5.7476 kg/m3
293.14 K, 749.2 kPa	8.6261 kg/m3 and 8.626 kg/m3
293.14 K, 749.3 kPa	8.6261 kg/m3
293.14 K, 999 kPa	11.5072 kg/m3 [middle of 5 runs]
293.14 K, 1498.5 kPa	17.2762 kg/m3 [middle of 6 runs]
293.14 K, 1998 kPa	23.0541 kg/m3 and 23.0539 kg/m3
293.14 K, 2997.1 kPa	34.6233 kg/m3 and 34.6235 kg/m3 and 34.6236 kg/m3
293.14 K, 3996.1 kPa	46.1976 kg/m3 [middle of 5 runs]
293.14 K, 4995.1 kPa	57.7592 kg/m3
293.14 K, 4995.2 kPa	57.7597 kg/m3 and 57.7599 kg/m3
293.14 K, 5994.2 kPa	69.2908 kg/m3 and 69.291 kg/m3 and 69.2909 kg/m3
293.14 K, 5994.3 kPa	69.2914 kg/m3 and 69.2915 kg/m3
293.15 K, 4004.8 kPa	46.2934 kg/m3 [middle of 6 runs]
293.15 K, 4004.9 kPa	46.2937 kg/m3
293.15 K, 5964.9 kPa	68.9512 kg/m3 [middle of 5 runs]
293.15 K, 7948.6 kPa	91.6869 kg/m3 [middle of 4 runs]
293.15 K, 7948.8 kPa	91.689 kg/m3 and 91.6881 kg/m3
293.15 K, 11980 kPa	136.716 kg/m3 [middle of 7 runs]
293.15 K, 15954 kPa	178.78 kg/m3
293.15 K, 15955 kPa	178.782 kg/m3 [middle of 7 runs]
293.15 K, 19567 kPa	214.452 kg/m3 and 214.453 kg/m3
293.15 K, 19568 kPa	214.457 kg/m3
293.15 K, 24175 kPa	256.042 kg/m3
293.15 K, 24176 kPa	256.052 kg/m3 [middle of 4 runs]
293.15 K, 28412 kPa	290.447 kg/m3 [middle of 4 runs]
293.15 K, 28413 kPa	290.455 kg/m3 and 290.453 kg/m3
293.15 K, 32144 kPa	317.902 kg/m3
293.15 K, 32145 kPa	317.909 kg/m3 and 317.905 kg/m3
293.15 K, 32146 kPa	317.912 kg/m3
293.15 K, 32147 kPa	317.922 kg/m3 and 317.917 kg/m3
293.15 K, 32148 kPa	317.926 kg/m3
320 K, 4775.8 kPa	50.1489 kg/m3 and 50.1482 kg/m3 and 50.1481 kg/m3
320 K, 4775.9 kPa	50.1492 kg/m3 and 50.1493 kg/m3 and 50.149 kg/m3
320 K, 10135 kPa	104.999 kg/m3 and 105.001 kg/m3 and 105.002 kg/m3
320 K, 20210 kPa	198.799 kg/m3 [middle of 6 runs]
339.98 K, 499.5 kPa	4.9482 kg/m3 and 4.9481 kg/m3 and 4.948 kg/m3
339.98 K, 999 kPa	9.8915 kg/m3 and 9.8916 kg/m3
339.98 K, 1998 kPa	19.7585 kg/m3 and 19.7583 kg/m3 and 19.7584 kg/m3
339.98 K, 3996 kPa	39.3819 kg/m3 [middle of 4 runs]
339.98 K, 5994.1 kPa	58.7959 kg/m3 and 58.796 kg/m3
339.99 K, 5081.9 kPa	49.9596 kg/m3
339.99 K, 5082 kPa	49.9602 kg/m3 and 49.9596 kg/m3
339.99 K, 5082.1 kPa	49.9616 kg/m3
339.99 K, 21784 kPa	198.014 kg/m3
340 K, 5082 kPa	49.96 kg/m3
340 K, 10840 kPa	104.588 kg/m3 and 104.589 kg/m3
340 K, 21784 kPa	198.008 kg/m3 [middle of 5 runs]
340.01 K, 3874.6 kPa	38.1897 kg/m3 [middle of 6 runs]
340.01 K, 5932.3 kPa	58.1965 kg/m3 and 58.1955 kg/m3
340.01 K, 5932.4 kPa	58.1962 kg/m3
340.01 K, 7789.6 kPa	75.9992 kg/m3
340.01 K, 7789.7 kPa	76.0004 kg/m3 [middle of 5 runs]
